Measured values reported in US6495522B1, “Substituted alpha-hydroxy acid caspase inhibitors and the use thereof” (Cytovia, Inc., priority 1999, dated 2002).

What was measured:
rcaspase 3 = target: T1, rcaspase 3 (Homo sapiens, UniProt P42574); assay: Fluorometric caspase-3 enzyme assay; format: biochemical; settings: 2 ng rcaspase 3, 10 μM Ac-DEVD-AMC, 37° C., 30 minutes; read-out: IC50 as an inhibitor of caspase-3
T1 construct: purchased PharMingen (a Becton division company, San Diego, Calif.)
T1 sequence (P42574 29-175 limits assumed): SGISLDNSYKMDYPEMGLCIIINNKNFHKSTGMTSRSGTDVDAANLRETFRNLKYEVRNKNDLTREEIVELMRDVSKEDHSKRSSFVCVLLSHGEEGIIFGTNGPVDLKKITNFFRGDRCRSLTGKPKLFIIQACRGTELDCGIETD
T1 sequence (P42574 176-277 limits assumed): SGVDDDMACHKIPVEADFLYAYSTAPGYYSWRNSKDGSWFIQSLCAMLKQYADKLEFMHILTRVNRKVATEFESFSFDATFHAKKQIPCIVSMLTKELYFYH
Experimental: The activity of S-2-methyl-1-(carbonyl-Asp-CH2F)propyl N-phenylcarbamate as an inhibitor of caspase-3 was measured in a fluorometric enzyme assay. Enzyme activity was measured using synthetic peptide substrates attached to a fluorogenic leaving group. Cleavage of the synthetic substrate by the enzyme results in a fluorescent signal which is read in a spectrofluorometer or in a fluorometric microtiter plate reader.
12 concentrations of the test compound ranging from 30 pM to 10 μM were tested in the enzyme assay. The enzyme reaction was conducted in the presence of 2 ng rcaspase 3 (purchased from PharMingen, a Becton division company, San Diego, Calif.), various concentrations of test compound, 10 μM caspase 3 substrate Ac-DEVD-AMC (SEQ ID NO:1, purchased from Quality Controlled Biochemicals, Inc. Hopkinton, Mass.) and caspase buffer (20 mM PIPES, 100 mM NaCl, 10 mM DTT, 1 mM EDTA, 0.1% CHAPS and 10% sucrose, pH 7.2) in a total volume of 100 μL. The enzyme reaction was carried out in a 96-well plate and incubated at 37° C. for 30 minutes. The plate was then read with a fluorescence plate reader (EG&G WALLAG 1420-002) using excitation filter at 355 nm/emission filter at 460 nm.

HeLa cells = assay: Cell protection: HeLa cell death induced by TNF-α; format: cell-based; settings: TNF-α (25 ng/ml) and cycloheximide (30 μg/ml), 24 hours, calcein AM, read-out: EC50 for cytoprotection
Experimental: Cell protection activity was determined by examining the ability of S-2-methyl-1-(carbonyl-Asp-CH2F)propyl N-phenylcarbamate to block HeLa cell death induced by TNF-α. In this assay, 25,000 HeLa cells are seeded in 96-well plates 24 hours prior to testing. On the assay day, the cells are pre-incubated for 30 minutes with the test compound at eight different concentrations and the cells are then challenged with TNF-α (25 ng/ml) and cycloheximide (30 μg/ml) and incubated further for 24 hours. The dead cells are then removed by two PBS washes and 100 μL of a cell-mass indicator solution (calcein AM, final concentration 8 μM) is added. After a 20 minute incubation, the fluorescent signal is measured at 485/510 nm and the data are expressed as percent control, using control cultures treated only with cycloheximide.

IC50 (rcaspase 3): 17 nM
SMILES: CC(C)[C@H](OC(=O)Nc1ccccc1)C(=O)N[C@@H](CC(=O)O)C(=O)CF [Example 3, S-2-Methyl-1-(carbonyl-Asp-CH2F)propyl N-Phenylcarbamate]
EC50 (HeLa cells): 150 nM
